Results: PMC9504289 (Pharmaceuticals, 2022)
Where “and” joins values, the source holds several entries; their conditions need not be identical. Equal entries are not always repeated. Where two headings read alike, the source gives them in different places.

Legend:
[1] = target: HCoV-NL63 S1 – hACE2 (Human coronavirus NL63, UniProt Q6Q1S2); assay: biochemical; format: binding; details: for IC50: Inhibition of HCoV-NL63 S1 – hACE2 Binding: IC50
[2] = system: SARS-CoV-2 pseudovirus (orig. strain); assay: microbe, parasite or virus in culture; format: cell-based; details: Severe acute respiratory syndrome-related coronavirus, HEK-293T, read-out: Inhibition of SARS-CoV-2 pseudovirus entry (orig. strain) IC50
[3] = system: SARS-CoV-2 pseudovirus (delta VoC); assay: microbe, parasite or virus in culture; format: cell-based
[4] = system: HEK293T cells
Source text: Figure 8 Cytotoxicity assessment. MTS cytotoxicity assay (HEK293T cells) using the same conditions as for the activity assessment (Figure 7). Data (symbols) are average ± SD of three experiments in duplicates; TC50 values shown in the legend were obtained from fitting with standard sigmoid curves as before.

[5] = system: SARS-CoV-2; details: read-out: antiviral activity IC50 confirmed in a live viral or pseudoviral assay; cited from earlier work
[6] = target: SARS-CoV-2-S; details: read-out: KD for binding to SARS-CoV-2-S; cited from earlier work
[7] = system: SARS-CoV-2; details: read-out: IC50 for SARS-CoV-2 infection inhibition; cited from earlier work
[8] = Severe acute respiratory syndrome-related coronavirus, HEK-293T, hACE2-expressing HEK293T, read-out: Inhibition of SARS-CoV-2 pseudovirus entry (delta VoC) IC50
[9] = same conditions as pseudovirus assay

Sequence of HCoV-NL63 S1 – hACE2 (Q6Q1S2 19-717 limits assumed): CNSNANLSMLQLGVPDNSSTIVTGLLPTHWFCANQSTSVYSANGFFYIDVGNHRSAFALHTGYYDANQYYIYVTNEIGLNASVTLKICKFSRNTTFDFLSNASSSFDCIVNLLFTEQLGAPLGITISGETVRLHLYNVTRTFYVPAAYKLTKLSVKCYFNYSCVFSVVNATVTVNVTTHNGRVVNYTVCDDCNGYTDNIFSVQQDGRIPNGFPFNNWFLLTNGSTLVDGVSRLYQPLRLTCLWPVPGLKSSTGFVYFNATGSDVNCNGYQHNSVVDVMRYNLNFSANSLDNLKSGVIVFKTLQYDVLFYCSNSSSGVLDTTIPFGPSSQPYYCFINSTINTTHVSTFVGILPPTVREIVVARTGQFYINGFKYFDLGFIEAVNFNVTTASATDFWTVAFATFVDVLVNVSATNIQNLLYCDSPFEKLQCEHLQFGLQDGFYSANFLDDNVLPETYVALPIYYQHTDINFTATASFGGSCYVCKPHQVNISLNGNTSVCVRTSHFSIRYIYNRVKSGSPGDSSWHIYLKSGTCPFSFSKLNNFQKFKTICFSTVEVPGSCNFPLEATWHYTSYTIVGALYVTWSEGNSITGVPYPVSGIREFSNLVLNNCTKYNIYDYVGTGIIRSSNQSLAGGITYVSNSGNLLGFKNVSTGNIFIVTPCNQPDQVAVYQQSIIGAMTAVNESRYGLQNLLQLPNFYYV

Row | Compound | IC50 [1] | IC50 ([2]; hACE2-expressing HEK293T) [µM] | IC50 [3, 8] [µM] | IC50 [5] [µM] | Cytotoxicity (HEK293T cells, MTS): TC50 [4, 9] | also measured
1 | Nc1c(/N=N/c2ccc(-c3ccc(/N=N/c4cc(S(=O)(=O)O)c5ccccc5c4N)cc3)cc2)cc(S(=O)(=O)O)c2ccccc12 [Congo red] | < 3 µM and 2.26 µM | 20.3 | 3.07 | < 30 | – | Cytotoxicity (HEK293T cells, MTS): TC50 ([4]; same conditions as pseudovirus assay, listed as CgRd): 130 µM and 130.40 µM
2 | O=C(Nc1ccc(-c2ccc(C(=O)Nc3cccc4cc(S(=O)(=O)O)ccc34)cc2)cc1)c1ccc([N+](=O)[O-])cc1 [DRI-C23041] | 4.16 µM | 4.71 | 5.42 | < 30 | > 1000.00 µM | loss of activity compared to the SARS-CoV assays [1]: 2–5 fold; IC50 ([3]; read-out: Inhibition of SARS-CoV-2 pseudovirus entry (delta VoC) IC50, hACE2-expressing HEK293T): 6.31 µM
3 | O=C(Nc1ccc(-c2ccc(C(=O)Nc3cccc4c(S(=O)(=O)O)cccc34)cc2)cc1)c1ccc([N+](=O)[O-])cc1 [DRI-C24041] | 6.54 µM | 6.58 | 7.76 | – | > 600 µM and 617.90 µM | loss of activity compared to the SARS-CoV assays [1]: 2–5 fold
4 | O=C(Nc1ccc2cc(C(=O)Nc3cccc4cccc(S(=O)(=O)O)c34)ccc2c1)c1ccc([N+](=O)[O-])cc1 [DRI-C41041] | – | > 500 | 27.7 | – | > 1000.00 µM | –
5 | O=C(Nc1ccc(-c2ccc(C(=O)Nc3ccc(S(=O)(=O)O)c4cccc(S(=O)(=O)O)c34)cc2)cc1)c1ccc([N+](=O)[O-])cc1 [DRI-C2105041] | – | 217 | 26.9 | – | > 1000.00 µM | –
6 | Nc1ccc2cc(S(=O)(=O)O)cc(O)c2c1/N=N/c1ccc(-c2ccc(/N=N/c3c(N)ccc4cc(S(=O)(=O)O)cc(O)c34)cc2)cc1 [Direct violet 1, direct violet 1] | < 3 µM and 2.29 µM | 35.8 | 2.97 | < 30 | – | Cytotoxicity (HEK293T cells, MTS): TC50 ([4]; same conditions as pseudovirus assay, listed as DV1): 110 µM and 110.10 µM
7 | Cc1cc(-c2ccc(/N=N/c3ccc4c(S(=O)(=O)O)cc(S(=O)(=O)O)c(N)c4c3O)c(C)c2)ccc1/N=N/c1ccc2c(S(=O)(=O)O)cc(S(=O)(=O)O)c(N)c2c1O [Evans blue] | < 3 µM and 2.6 µM | – | – | < 30 | – | IC50 [2]: 16.6 µM; IC50 ([3]; Severe acute respiratory syndrome-related coronavirus, HEK-293T, read-out: Inhibition of SARS-CoV-2 pseudovirus entry (delta VoC) IC50, hACE2-expressing HEK293T): 25.4 µM; Cytotoxicity (HEK293T cells, MTS): TC50 ([4]; same conditions as pseudovirus assay, listed as EvBl): 439 µM and 439.20 µM; Kd [6]: 2.2 µM; IC50 [7]: 28.1 µM
8 | Nc1c(/N=N/c2ccc([N+](=O)[O-])cc2)c(S(=O)(=O)O)cc2cc(S(=O)(=O)O)c(/N=N/c3ccccc3)c(O)c12 [Naphthol blue black, naphthol blue black] | 58.7 µM | > 500 | 174 | – | – | Cytotoxicity (HEK293T cells, MTS): TC50 ([4]; human): > 1000.00 µM
9 | O=S(=O)(O)c1ccc(/N=N/c2c(O)ccc3cc(S(=O)(=O)O)ccc23)cc1 [Sunset yellow, sunset yellow FCF] | > 500 µM | > 500 | > 500 | – | – | Cytotoxicity (HEK293T cells, MTS): TC50 ([4]; human): > 1000.00 µM
10 | C=C(C)[C@@H]1CCC(C)=C[C@H]1c1c(O)cc(CCCCC)c(C(=O)O)c1O [cannabidiolic acid] | – | – | – | < 30 | – | –
11 | CCCCCc1cc(O)c(C/C=C(\C)CCC=C(C)C)c(O)c1C(=O)O [cannabigerolic acid] | – | – | – | < 30 | – | –
13 | verteporfin | – | – | – | < 30 | – | –
